# Assay results reported in patent US7696357B2, “Stable hydrate of a muscarinic receptor antagonist” (Novartis International Pharmaceutical Ltd., priority 2002, dated 2010).
# Test: storage stability / shelf life of the solid form
# Assay type: physicochemical
# Details: storage over time
stability on storage (in words) (hydrate),"stability on storage (in words) (listed as solid hydrate, hydrate)",Structure (SMILES),stability on storage (in words)
stable over long periods,remain stable for well over a year,"NC(=O)C(c1ccccc1)(c1ccccc1)[C@@H]1CCN(CCc2ccc3c(c2)CCO3)C1 [darifenacin hydrate, (S)-2-{1-[2-(2,3-dihydrobenzofuran-5-yl)ethyl]-3-pyrrolidinyl}-2,2-diphenylacetamide hydrate]",
,,"NC(=O)C(c1ccccc1)(c1ccccc1)[C@@H]1CCN(CCc2ccc3c(c2)CCO3)C1 [free base, (S)-2-{1-[2-(2,3-dihydrobenzofuran-5-yl)ethyl]-3-pyrrolidinyl}-2,2-diphenylacetamide, reference compound]",very unstable
,,"NC(=O)C(c1ccccc1)(c1ccccc1)[C@@H]1CCN(CCc2ccc3c(c2)CCO3)C1 [toluene solvate, (S)-2-{1-[2-(2,3-dihydrobenzofuran-5-yl)ethyl]-3-pyrrolidinyl}-2,2-diphenylacetamide toluene solvate]",not stable over medium to long term storage periods
